Experiments:
Type in all cases: in vivo
[1] = system: Echinochloa crus-galli (L.) P. Beauv. var. formosensis Ohwi; experiment: Test for Herbicidal Effect in Flooding Treatment (#1), ECHDG; conditions: for ECHDG #1 herbicidal effect (growth inhibition grade): flooding treatment at seeding, dose 2 kg/ha, visual observation on day 21; for ECHDG #1 herbicidal effect (growth inhibition rating 0-5): flooding treatment #1
Procedure: (§1) (#1) Test for Herbicidal Effect in Flooding Treatment: Styrol cups each having an opening diameter of 8 cm (about 52 cm^2) were respectively filled with soil (45 ml) which had been passed through a sieve (2 mm). Water (about 115 ml) was mixed with the soil such that the soil was flooded. After the soil stood still for 24 hours, Monochoria vaginalis, Echinochloa crus-galli (L.) P. Beauv. var. formosensis Ohwi, Cyperus difformis (umbrella sedge), and Scirpus juncoides were seeded. Each of the compounds of the present invention was dissolved in acetone, and the obtained product was then diluted with water containing Tween 80®. Each of the resultant chemical solutions was dropped on the entire surface of an associated one of treatment sections, so that each section was treated with 1 ml of the respective chemical solution (a dose of 2 kg/ha). After the treatment, the plants were grown in a glasshouse. On day 21, a survey was conducted on the herbicidal activity by visual observation, and evaluation was made according to the following criteria. 0: Growth inhibition effect is less than 10%. 1: Growth inhibition effect is equal to or greater than 10%, and less than 30%. 2; Growth inhibition effect is equal to or greater than 30%, and less than 50%. 3: Growth inhibition effect equal to or greater than 50%, and less than 70%. 4: Growth inhibition effect is equal to or greater than 70%, and less than 90%. 5: Growth inhibition effect is equal to or greater than 90%, or complete withering is achieved. ECHDG=Echinochloa crus-galli (L.) P. Beauv. var. formosensis Ohwi, MONVA=Monochoria vaginalis, SCIJU=Scirpus juncoides, CYMIC=Cyperus microiria.

Monochoria vaginalis = experiment: Test for Herbicidal Effect in Flooding Treatment (#1), MONVA; conditions: for MONVA #1 herbicidal effect (growth inhibition grade): flooding treatment at seeding, dose 2 kg/ha, visual observation on day 21; for MONVA #1 herbicidal effect (growth inhibition rating 0-5): flooding treatment #1
Procedure: as §1

Scirpus juncoides = experiment: Test for Herbicidal Effect in Flooding Treatment (#1), SCIJU; conditions: for SCIJU #1 herbicidal effect (growth inhibition grade): flooding treatment at seeding, dose 2 kg/ha, visual observation on day 21; for SCIJU #1 herbicidal effect (growth inhibition rating 0-5): flooding treatment #1
Procedure: as §1

[2] = system: Echinochloa crus-galli (L.) P. Beauv. var. formosensis Ohwi; experiment: Test for Herbicidal Effect in Flooding Treatment (#2), ECHDG at 2-2.5 leaf stage; conditions: flooding treatment at 2-2.5 leaf stage, dose 0.2 kg/ha, visual observation on day 21
Procedure: (#2) Test for Herbicidal Effect in Flooding Treatment: Styrol cups each having an opening diameter of 13 cm (about 130 cm^2) were respectively filled with muddy soil (500 ml). Water (about 300 ml) was mixed with the soil such that the soil was flooded. After the soil stood still for 24 hours, Echinochloa crus-galli (L.) P. Beauv. var. formosensis Ohwi was seeded. When the Echinochloa crus-galli (L.) P. Beauv. var. formosensis Ohwi grew to reach 2-2.5 leaf stage, chemical solutions were dropped on the entire surface of treatment sections, so that each section is treated with 1 ml of the respective chemical solution (a dose of 0.2 kg/ha). Each of the chemical solutions was prepared by dissolving associated one of the compounds of the present invention in acetone, followed by dilution with water containing Tween 80 g. After the treatment, the plants were grown in a glasshouse. On day 21, a survey was conducted on the herbicidal activity by visual observation, and evaluation was made according to the following criteria. 0: Growth inhibition effect is less than 10%. 1: Growth inhibition effect is equal to or greater than 10%, and less than 30%. 2; Growth inhibition effect is equal to or greater than 30%, and less than 50%. 3: Growth inhibition effect equal to or greater than 50%, and less than 70%. 4: Growth inhibition effect is equal to or greater than 70%, and less than 90%. 5: Growth inhibition effect is equal to or greater than 90%, or complete withering is achieved. ECHDG=Echinochloa crus-galli (L.) P. Beauv. var. formosensis Ohwi, MONVA=Monochoria vaginalis, SCIJU=Scirpus juncoides, CYMIC=Cyperus microiria. The herbicidal activity of the following comparative compounds A and B (the compounds disclosed Japanese Unexamined Patent Publication No. 2003-096059) were evaluated in a manner pursuant to Test Example 1. (#2).

SMILES | ECHDG #1 herbicidal effect (growth inhibition grade) [1] | MONVA #1 herbicidal effect (growth inhibition grade) (Monochoria vaginalis) | SCIJU #1 herbicidal effect (growth inhibition grade) (Scirpus juncoides) | ECHDG (2-2.5L) #2 herbicidal effect (growth inhibition grade) [2] | ECHDG #1 herbicidal effect (growth inhibition rating 0-5) [1] | MONVA #1 herbicidal effect (growth inhibition rating 0-5) (Monochoria vaginalis) | SCIJU #1 herbicidal effect (growth inhibition rating 0-5) (Scirpus juncoides)
CC(c1c(F)cccc1OCC(F)F)S(=O)(=O)c1ncc(Cl)s1 (racemic) [Compound 1C-142] | 5 (Growth inhibition effect is equal to or greater than 90%, or complete withering is achieved) | 5 (Growth inhibition effect is equal to or greater than 90%, or complete withering is achieved) | 5 (Growth inhibition effect is equal to or greater than 90%, or complete withering is achieved) | 5 (Growth inhibition effect is equal to or greater than 90%, or complete withering is achieved) |  |  | 
CC(c1c(Cl)cccc1OCCC(F)(F)F)S(=O)(=O)c1ncc(Cl)s1 (racemic) [Compound 1C-150] | 5 (Growth inhibition effect is equal to or greater than 90%, or complete withering is achieved) | 5 (Growth inhibition effect is equal to or greater than 90%, or complete withering is achieved) | 5 (Growth inhibition effect is equal to or greater than 90%, or complete withering is achieved) |  |  |  | 
[O-][S+](Cc1c(F)cccc1OCC(F)F)c1ncc(Cl)s1 (stereo not shown) [Compound 1B-7] |  |  |  |  | 5 (Growth inhibition effect is equal to or greater than 90%, or complete withering is achieved) | 5 (Growth inhibition effect is equal to or greater than 90%, or complete withering is achieved) | 5 (Growth inhibition effect is equal to or greater than 90%, or complete withering is achieved)
[O-][S+](Cc1c(Cl)cccc1OCC(F)(F)C(F)(F)F)c1ncc(Cl)s1 (stereo not shown) [Compound 1B-14] |  |  |  |  | 5 (Growth inhibition effect is equal to or greater than 90%, or complete withering is achieved) | 5 (Growth inhibition effect is equal to or greater than 90%, or complete withering is achieved) | 5 (Growth inhibition effect is equal to or greater than 90%, or complete withering is achieved)
[O-][S+](Cc1c(OCC(F)F)cccc1OCC(F)F)c1ncc(Cl)s1 (stereo not shown) [Compound 1B-15] |  |  |  |  | 3 (Growth inhibition effect equal to or greater than 50%, and less than 70%) | 5 (Growth inhibition effect is equal to or greater than 90%, or complete withering is achieved) | 5 (Growth inhibition effect is equal to or greater than 90%, or complete withering is achieved)
CCOC(=O)C(F)(F)Oc1cccc(Cl)c1CS(=O)(=O)c1ncc(Cl)s1 [Compound 1C-64] | 5 (Growth inhibition effect is equal to or greater than 90%, or complete withering is achieved) | 5 (Growth inhibition effect is equal to or greater than 90%, or complete withering is achieved) | 5 (Growth inhibition effect is equal to or greater than 90%, or complete withering is achieved) |  |  |  | 
O=S(=O)(Cc1c(OCC(F)F)cccc1OCC(F)F)c1ncc(Cl)s1 [Compound 1C-129] | 5 (Growth inhibition effect is equal to or greater than 90%, or complete withering is achieved) | 5 (Growth inhibition effect is equal to or greater than 90%, or complete withering is achieved) | 4 (Growth inhibition effect is equal to or greater than 70%, and less than 90%) |  |  |  | 
CCOc1ccc(Cl)cc1C(F)(F)S(=O)(=O)c1nc(F)c(Cl)s1 [Compound 1C-139] |  | 5 (Growth inhibition effect is equal to or greater than 90%, or complete withering is achieved) | 5 (Growth inhibition effect is equal to or greater than 90%, or complete withering is achieved) | 1 (Growth inhibition effect is equal to or greater than 10%, and less than 30%) |  |  | 
COc1ccc(Cl)c(CS(=O)(=O)c2ncc(C(F)(F)F)s2)c1F [Compound 1C-167] | 5 (Growth inhibition effect is equal to or greater than 90%, or complete withering is achieved) | 5 (Growth inhibition effect is equal to or greater than 90%, or complete withering is achieved) | 5 (Growth inhibition effect is equal to or greater than 90%, or complete withering is achieved) |  |  |  | 
CS(=O)(=O)c1ccc(CS(=O)(=O)c2ncc(Cl)s2)cc1 [Compound 1C-168] | 5 (Growth inhibition effect is equal to or greater than 90%, or complete withering is achieved) | 5 (Growth inhibition effect is equal to or greater than 90%, or complete withering is achieved) | 5 (Growth inhibition effect is equal to or greater than 90%, or complete withering is achieved) |  |  |  | 
C#CCN(C)c1cccc(F)c1CS(=O)(=O)c1ncc(Cl)s1 [Compound 1C-169] | 5 (Growth inhibition effect is equal to or greater than 90%, or complete withering is achieved) | 5 (Growth inhibition effect is equal to or greater than 90%, or complete withering is achieved) | 5 (Growth inhibition effect is equal to or greater than 90%, or complete withering is achieved) |  |  |  | 
O=S(=O)(Cc1c(Cl)ccc(OC(F)F)c1F)c1ncc(Cl)s1 [Compound 1C-180] | 5 (Growth inhibition effect is equal to or greater than 90%, or complete withering is achieved) |  | 5 (Growth inhibition effect is equal to or greater than 90%, or complete withering is achieved) | 5 (Growth inhibition effect is equal to or greater than 90%, or complete withering is achieved) |  |  | 
O=C(O)COc1cccc(F)c1CS(=O)(=O)c1ncc(Cl)s1 [Compound 1C-183] | 5 (Growth inhibition effect is equal to or greater than 90%, or complete withering is achieved) |  | 5 (Growth inhibition effect is equal to or greater than 90%, or complete withering is achieved) | 3 (Growth inhibition effect equal to or greater than 50%, and less than 70%) |  |  | 
O=S(=O)(Cc1c(F)cccc1OS(=O)(=O)C(F)(F)F)c1ncc(Cl)s1 [Compound 1C-185] | 5 (Growth inhibition effect is equal to or greater than 90%, or complete withering is achieved) |  | 5 (Growth inhibition effect is equal to or greater than 90%, or complete withering is achieved) | 5 (Growth inhibition effect is equal to or greater than 90%, or complete withering is achieved) |  |  | 

From patent publication US20200060276A1, “THIAZOLE COMPOUND AND HERBICIDE” (OAT Agrio Co., Ltd., priority 2017, published 2020)
